No end group written: not given here.
System: human primary hepatocytes
Test: LDL uptake assay (BODIPY-labelled LDL, high content imaging)
Format: cell-based
Details: 5 uM concentration, 4 h
Method: The effects of putative cholesterol lowering peptides was assessed using LDL uptake assays in primary human hepatocytes from a pool of 10 healthy donors. Hepatocytes were treated with peptides as well as LDL-labelled BODIPY for 4 h. Cells were then fixed, permeabilized and imaged on an Opera Phenix high content imaging platform. LDL uptake was determined using BODIPY stain intensity.
Human primary hepatocytes were seeded into 96-well PhenoVue plates at 37K/well density and recovered overnight. The next say, hepatocytes were treated with 5 uM peptide or null control (DMSO) as well as a BODIPY-labelled LDL (Invitrogen™ Image-iT™ Low Density Lipoprotein Uptake Kit, Bodipy FL, I34359). This assay is designed to specifically detect binding and uptake of LDL through the LDL receptor internalization pathway, allowing maximum control and flexibility in experimental design. Two controls were built into the system, unlabeled LDL and heparin. Unlabeled LDL provides an optional pre-treatment to occlude cell surface receptors in advance of probing with the labeled construct, while heparin is provided as an additional control to chelate the LDL in the solution phase outside of the cells, thus preventing binding and uptake of the labeled LDL. Metformin, a type 2 diabetes drug with cholesterol lowering effects, was used as a positive control for increased LDL uptake (FIG. 1). Following peptide, control, and LDL-BODIPY treatment, cells were incubated for 4 h in a 37 C incubator with 5% CO2. Following incubation, cells were fixed with 4% paraformaldehyde for 15 min. Cells were then permeabilized and stained with DAPI to visualize nuclei. Wells were then washed with HBSS and imaged using a Perkin Elmer Opera Phenix high content imaging platform (fluorescence) at 20× magnification with 9 fields per well. BODIPY spot intensity was quantified using the Harmony image analysis software.

Sequence | LDL uptake in hepatocytes
MMLPLWTFLERAMLLLISEVANRFKWSNGYTWKMPKA [SEQ ID NO: 36277] | increasing LDL uptake
MTAAVSLTRSPAISASCAASRSASPWAWPWTWF [SEQ ID NO: 75353] | increasing LDL uptake
LVVRWAVLVFRSSTAALPRAAEAARRSEKWPKTSALGRRS [SEQ ID NO: 26888] | increasing LDL uptake

From patent US20250320254A1, “Compositions and Methods for Modulating Circulating Factors” (Flagship Pioneering Innovations VII, LLC, priority 2022, published 2025)
